# In patent publication US9237744B2, “Preservative solution for cells, tissues and organs containing rare sugar and preservative method thereof” (NATIONAL UNIVERSITY CORPORATION KAGAWA UNIVERSITY, priority 2004, dated 2016):
# Key:
# [1] = tested on: HFB cells and NIH3T3 cells; assay: Proliferation ability after freeze-preservation with Cell Banker containing rare sugar (Example 1); assay type: cell-based, human, mouse; settings: sugar added to Cell Banker, versus Cell Banker alone (FIG. 3)
# Procedure: (§1) 1. Cells used: Hela (human cervical cancer), OVCAR-3 (human ovarian cancer), HuH-7 (human liver cancer), HaCaT (human skin keratinocyte), HFB (human fibroblast) and NIH3T3 (mouse fibroblast). Saccharides D-allose and the like were added to culture medium, Cell Banker (commercially available preservative solution) and DMSO at concentrations of 25 mM and 50 mM. Monosaccharides such as D-glucose, D-fructose, D-mannose and D-galactose which are present in nature in large quantities and D-allose, D-psicose, D-altrose, allitol, D-talitol and L-sorbose as rare sugars were used. Further, trehalose as disaccharide was used. The cells were preserved for 24 hours by being frozen at −80° C. 2) Cell growth: One day later, the cells were thawed, and 0.25˜2×10^4 cells/well were spread on 96-well plate with 0.1 mL medium. After a prescribed period of time, the cell growth was measured by MTT assay. 3) Then, the rare sugar was added to Cell Banker which was widely used for freeze-preservation of cells, and an effect of preservability was comparatively studied.
# [2] = tested on: Hela, OVCAR-3, HaCaT, HFB and NIH3T3 cells; assay: Cell growth after thawing of cells freeze-preserved at optimum concentrations, MTT assay (Example 2); assay type: cell-based, human, mouse; settings: freeze-preserved 24 hours at optimum concentration, versus other cases (FIG. 8)
# Procedure: (§2) 1. Cells used: Hela (human cervical cancer), OVCAR-3 (human ovarian cancer), HaCaT (human skin keratinocyte), HFB (human fibroblast) and NIH3T3 (mouse fibroblast). Saccharides D-allose and the like were added to culture medium, Cell Banker (commercially available preservative solution) and DMSO at concentrations of 0.2, 0.4, 0.6, 0.8 and 1M. Monosaccharides such as D-glucose, D-fructose, D-mannose and D-galactose which are present in nature in large quantities and D-allose, D-altrose, D-psicose, L-psicose, D-sorbose, L-sorbose, D-tagatose, L-tagatose and L-fructose as rare sugars were used. Further, trehalose as disaccharide was used. The cells frozen with D-allose were freeze-preserved at −80° C. and in liquid nitrogen for 24 hours, 1 week and 4 weeks. 2) Cell growth: The cells were freeze-preserved with D-allose and trehalose at optimum concentrations for 24 hours, thawed, and spread on a 96-well plate such that the concentration was 0.5-1×10^4 cells/well/0.1 ml. After a prescribed period of time, the cell growth was measured by MTT assay.
# HFB (human fibroblast) = assay: Cell growth after thawing of freeze-preserved cells, MTT assay (Example 1); assay type: cell-based; settings: culture medium plus sugar, in comparison with other cases (FIG. 2)
# Procedure: as §1, with “assay.” for “assay. 3) Then, the rare sugar was added to Cell Banker which was widely used for freeze-preservation of cells, and an effect of preservability was comparatively studied.”
# [3] = tested on: Hela, OVCAR-3, HaCaT, HFB and NIH3T3 cells; assay: Survival rate of cells after freeze-preservation at high sugar concentration, trypan blue (Example 2); assay type: cell-based, human, mouse; settings: sugar-containing medium in comparison with medium alone (FIG. 7)
# Procedure: as §2, with “1) Survival rate of cells:” for “2) Cell growth:”, “were” for “were freeze-preserved with D-allose and trehalose at optimum concentrations for 24 hours,”, “the survival rate was estimated by” for “spread on”, “trypan blue dying method.” for “96-well plate such that the concentration was 0.5-1×10^4 cells/well/0.1 ml. After a prescribed period of time, the cell growth was measured by MTT assay.”
smiles,measurement,setting,value
"OC[C@H]1O[C@H](O[C@H]2O[C@H](CO)[C@@H](O)[C@H](O)[C@H]2O)[C@H](O)[C@@H](O)[C@@H]1O [trehalose, reference compound]",proliferation ability after freeze-preservation,[1],nearly the same effect was obtained
same,growth rate of cells after thawing,[2],nearly the same effect was obtained
same,growth rate of cells after thawing,HFB (human fibroblast),nearly the same effect was obtained
same,number of cells survived (trypan blue dying),[3],the same
